Assay: xn = mol fraction of the nth substance listed, in the solute-free solvent

Cl.N=C(N)N + CN(C)C=O + CCCO
solubility (g/100 g solution)
Settings	278.15 K	283.15 K	288.15 K	293.15 K	298.15 K	303.15 K	308.15 K	313.15 K	318.15 K	323.15 K
x2 = 0.08378	10.4	11.5	12.6	13.4	14.4	15.6	16.5	17.8	18.9	20.5
x2 = 0.2607	20.4	21.6	22.3	23	23.9	24.8	25.6	26.3	27.2	28.1
x2 = 0.4515	27.6	28.9	29.7	30.7	31.8	32.8	33.4	34.5	35.3	36.7
x2 = 0.657	35.6	37.3	38.3	39.1	40.5	41.6	42.5	43.5	44.9	46.1
x2 = 0.8809	43.5	45.6	46.6	47.1	48.8	49.9	50.7	52.4	53.7	54

Nc1ccc(Oc2ccc(N)cc2)cc1 + CN(C)C=O + CCO
solubility (g/100 g solution)
Settings	293.15 K	298.15 K	303.15 K	308.15 K	313.15 K	318.15 K	323.15 K	328.15 K	333.15 K
x2 = 0.06545	0.79	0.873	1.16	1.2	1.53	1.69	2.06	2.54	2.99
x2 = 0.1361	1.59	1.71	2.14	2.18	2.57	2.99	3.53	4.13	4.74
x2 = 0.2127	2.76	2.98	3.46	3.65	4.23	4.88	5.56	6.41	7.1
x2 = 0.2959	4.51	4.86	5.41	5.88	6.29	7.33	8.28	9.19	10.3
x2 = 0.3866	6.9	7.38	7.95	8.83	9.66	10.6	11.6	12.8	14.1
x2 = 0.486	9.91	10.6	11.3	12.2	13.3	14.3	15.5	16.9	18.1
x2 = 0.5952	13.6	14.3	15.1	16.1	17.2	18.5	19.6	21	22.4
x2 = 0.716	17.6	18.4	19.2	20.3	21.5	22.6	23.9	25.2	26.7
x2 = 0.8501	21.8	22.5	23.2	24	25.6	26.7	27.9	29.2	30.6

Source: the CheMixHub drug solubility set
